{"source": "paper PMC7664879", "about": "“Discovery of 12O—A Novel Oral Multi-Kinase Inhibitor for the Treatment of Solid Tumor” (Molecules, 2020)", "key": {"SKOV3": {"test_system": "SKOV3", "assay": "CCK-8 cell growth inhibition, SKOV3", "format": "cell-based, human", "conditions": "Homo sapiens, SK-OV-3; CCK-8 assay, 72-h incubation; read-out: Cell Lines IC50 SKOV3", "protocol": "(§1) In vitro anticancer screening of all newly synthesized compounds towards human solid tumor cells, cervical (SiHa) and ovarian (SKOV3) cancer cell lines, was carried out by standard CCK-8 assay with cisplatin as the positive control, as cisplatin is one of the most used chemotherapy drugs. […] The compound was further evaluated in a dose response study against a panel of solid tumor cells, including cervical cancer cell lines (SiHa and HeLa), ovarian cancer cell lines (SKOV3 and OVCAR-5), breast cancer cell lines (4T1 and MCF-7), lung cancer cell lines (A549 and H460) to test cytotoxic activity. The IC50 values were summarized in Table 2, including the cytotoxic activity of the cisplatin used as reference compound.\n(§2) The viability of cells as determined using the CCK8 assay method. Cells were seeded (2000–3000 cells per well) in 96-well plates. After incubation for 24 h in serum-containing media, the cells were treated with drugs at different concentrations diluted with culture medium for 72 h at 37 °C with a 5% CO2 atmosphere. Then, 10 μL CCK8 regent (Promega, WI) was added to each well, and the plates were incubated for 1–4 h at 37 °C. Finally, absorbance values of test wells (AS), control wells (AC) and blank wells (Ab) at 450 nm were read using the Microplate Reader (Promega, WI). Inhibition ratios were calculated as follows: [(AC − AS)/ (AC−Ab)] × 100%. IC50 values were calculated using GraphPad software."}, "HeLa": {"test_system": "HeLa", "assay": "CCK-8 cell growth inhibition, HeLa", "format": "cell-based, human", "conditions": "Homo sapiens, HeLa; cervical cancer; CCK-8 assay, 72-h incubation", "protocol": "as §1\nas §2, with “Then, 10 μL CCK8 regent (Promega, WI) was added to each well, and the plates were incubated for 1–4 h at 37 °C.” left out"}, "OVCAR-5": {"test_system": "OVCAR-5", "assay": "CCK-8 cell growth inhibition, OVCAR-5", "format": "cell-based, human", "conditions": "Homo sapiens, OVCAR-5; ovarian cancer; CCK-8 assay, 72-h incubation", "protocol": "as §1\nas §2, with “Then, 10 μL CCK8 regent (Promega, WI) was added to each well, and the plates were incubated for 1–4 h at 37 °C.” left out"}, "CDK7/cyclinH/MAT1(h)": {"target": "T1, CDK7/cyclinH/MAT1(h) (Homo sapiens, UniProt P50613)", "T1 construct": "purchased Eurofins (KinaseProfiler service)", "assay": "Kinase inhibition assay (Eurofins KinaseProfiler)", "format": "biochemical", "conditions": "ATP at Km", "protocol": "(§3) Kinase inhibition profiles were determined using KinaseProfiler services provided by Eurofins, and ATP concentrations used are the Km of corresponding kinases.\nCDK7/cyclinH/MAT1 (h) was incubated with 8 mM MOPS pH 7.0, 0.2 mM EDTA, 500 uM peptide, 10 mM MgAcetate and [gamma-33P]-ATP (specific activity and concentration as required).\n(§4) All the reactions above were initiated by the addition of the Mg/ATP mix. After incubation for 40 min at room temperature, the reaction was stopped by the addition of phosphoric acid to a concentration of 0.5%. An amount of 10 µL of the reaction was then spotted onto a P30 filtermat and washed four times for 4 min in 0.425% phosphoric acid and once in methanol prior to drying and scintillation counting."}, "Abl(h)": {"target": "T2, Abl(h) (Homo sapiens, UniProt P00519)", "T2 construct": "purchased Eurofins (KinaseProfiler service)", "T2 sequence (P00519 whole entry)": "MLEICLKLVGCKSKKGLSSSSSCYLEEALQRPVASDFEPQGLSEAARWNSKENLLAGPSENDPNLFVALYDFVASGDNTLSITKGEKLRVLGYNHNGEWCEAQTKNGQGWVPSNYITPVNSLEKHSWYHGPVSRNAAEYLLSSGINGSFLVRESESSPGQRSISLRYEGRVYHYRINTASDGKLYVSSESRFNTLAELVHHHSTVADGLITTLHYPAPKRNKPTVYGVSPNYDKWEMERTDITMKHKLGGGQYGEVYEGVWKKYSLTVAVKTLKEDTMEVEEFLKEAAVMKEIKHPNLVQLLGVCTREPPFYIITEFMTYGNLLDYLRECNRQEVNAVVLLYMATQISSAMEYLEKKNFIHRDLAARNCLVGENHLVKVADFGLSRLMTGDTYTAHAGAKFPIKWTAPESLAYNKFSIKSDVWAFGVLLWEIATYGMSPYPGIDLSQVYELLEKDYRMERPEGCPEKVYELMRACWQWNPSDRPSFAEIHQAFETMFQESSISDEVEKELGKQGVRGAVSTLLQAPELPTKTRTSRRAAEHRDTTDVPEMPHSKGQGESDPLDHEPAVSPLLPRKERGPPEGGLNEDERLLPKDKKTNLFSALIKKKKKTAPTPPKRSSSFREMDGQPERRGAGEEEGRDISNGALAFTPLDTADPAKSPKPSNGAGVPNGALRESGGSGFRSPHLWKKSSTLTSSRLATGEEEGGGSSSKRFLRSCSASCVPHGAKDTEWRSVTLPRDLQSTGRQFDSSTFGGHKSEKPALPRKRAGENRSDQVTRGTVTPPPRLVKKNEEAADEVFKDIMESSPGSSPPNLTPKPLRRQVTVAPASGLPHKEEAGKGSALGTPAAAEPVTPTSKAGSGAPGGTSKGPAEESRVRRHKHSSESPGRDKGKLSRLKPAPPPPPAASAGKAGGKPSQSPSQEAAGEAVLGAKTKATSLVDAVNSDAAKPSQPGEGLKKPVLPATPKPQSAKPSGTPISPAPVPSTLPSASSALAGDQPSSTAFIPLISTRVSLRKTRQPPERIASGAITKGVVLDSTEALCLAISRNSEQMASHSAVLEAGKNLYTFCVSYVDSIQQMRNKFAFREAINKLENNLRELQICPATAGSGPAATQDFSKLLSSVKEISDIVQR", "assay": "Kinase inhibition assay (Eurofins KinaseProfiler)", "format": "biochemical", "conditions": "ATP at Km", "protocol": "as §3\n(§5) Flt1 (h) was incubated with 8 mM MOPS pH 7.0, 0.2 mM EDTA, 250 uM KKKSPGEYVNIEFG, 10 mM MgAcetate and [g- 33P]-ATP; Flt3 (h) [Abl (h)] was incubated with 8 mM MOPS pH 7.0, 0.2 mM EDTA, 50 uM EAIYAAPFAKKK, 10 mM MgAcetate and [gamma-33P]- ATP; Flt4 (h) was incubated with 8 mM MOPS pH 7.0, 0.2 mM EDTA, 500 uM GGEEEEYFELVKKKK, 10 mM MgAcetate and [gamma-33P]-ATP.\nas §4"}, "FLT1 (VEGFR1)": {"target": "T3, FLT1 (VEGFR1) (Homo sapiens, UniProt P17948)", "T3 construct": "purchased Eurofins (KinaseProfiler service)", "assay": "Kinase inhibition assay (Eurofins KinaseProfiler)", "format": "biochemical", "conditions": "ATP at Km", "protocol": "as §3, §5, §4"}, "FLT3(h)": {"target": "T4, FLT3(h) (Homo sapiens, UniProt P36888)", "T4 construct": "purchased Eurofins (KinaseProfiler service)", "T4 sequence (P36888 27-993)": "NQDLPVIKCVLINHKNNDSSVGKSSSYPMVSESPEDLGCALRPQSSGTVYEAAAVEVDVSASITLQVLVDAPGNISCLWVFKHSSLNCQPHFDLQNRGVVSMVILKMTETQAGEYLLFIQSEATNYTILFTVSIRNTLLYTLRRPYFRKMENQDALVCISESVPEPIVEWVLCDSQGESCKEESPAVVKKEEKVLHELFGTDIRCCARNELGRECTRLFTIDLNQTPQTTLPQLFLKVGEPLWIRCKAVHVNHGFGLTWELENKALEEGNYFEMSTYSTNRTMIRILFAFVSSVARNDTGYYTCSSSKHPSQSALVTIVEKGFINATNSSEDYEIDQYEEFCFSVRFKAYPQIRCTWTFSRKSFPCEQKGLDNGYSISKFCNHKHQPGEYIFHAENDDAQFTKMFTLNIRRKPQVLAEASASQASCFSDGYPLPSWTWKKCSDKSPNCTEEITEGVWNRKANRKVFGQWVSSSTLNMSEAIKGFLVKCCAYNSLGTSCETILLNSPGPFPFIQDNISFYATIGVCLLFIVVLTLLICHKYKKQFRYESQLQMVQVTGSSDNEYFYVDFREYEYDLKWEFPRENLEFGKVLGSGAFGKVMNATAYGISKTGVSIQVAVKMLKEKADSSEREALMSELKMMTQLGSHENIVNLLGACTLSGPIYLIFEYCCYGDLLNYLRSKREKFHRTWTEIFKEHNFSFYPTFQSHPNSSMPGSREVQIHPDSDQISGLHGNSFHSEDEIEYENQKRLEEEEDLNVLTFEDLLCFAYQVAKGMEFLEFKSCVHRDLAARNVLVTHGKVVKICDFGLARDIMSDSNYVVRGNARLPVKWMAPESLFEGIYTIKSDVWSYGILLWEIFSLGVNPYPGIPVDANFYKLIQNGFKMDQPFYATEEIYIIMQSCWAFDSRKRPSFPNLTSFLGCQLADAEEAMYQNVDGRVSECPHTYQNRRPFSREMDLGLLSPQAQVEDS", "assay": "Kinase inhibition assay (Eurofins KinaseProfiler)", "format": "biochemical", "conditions": "ATP at Km", "protocol": "as §3, §5, §4"}, "FLT4 (VEGFR3)": {"target": "T5, FLT4 (VEGFR3) (Homo sapiens, UniProt P35916)", "T5 construct": "purchased Eurofins (KinaseProfiler service)", "T5 sequence (P35916 25-1363)": "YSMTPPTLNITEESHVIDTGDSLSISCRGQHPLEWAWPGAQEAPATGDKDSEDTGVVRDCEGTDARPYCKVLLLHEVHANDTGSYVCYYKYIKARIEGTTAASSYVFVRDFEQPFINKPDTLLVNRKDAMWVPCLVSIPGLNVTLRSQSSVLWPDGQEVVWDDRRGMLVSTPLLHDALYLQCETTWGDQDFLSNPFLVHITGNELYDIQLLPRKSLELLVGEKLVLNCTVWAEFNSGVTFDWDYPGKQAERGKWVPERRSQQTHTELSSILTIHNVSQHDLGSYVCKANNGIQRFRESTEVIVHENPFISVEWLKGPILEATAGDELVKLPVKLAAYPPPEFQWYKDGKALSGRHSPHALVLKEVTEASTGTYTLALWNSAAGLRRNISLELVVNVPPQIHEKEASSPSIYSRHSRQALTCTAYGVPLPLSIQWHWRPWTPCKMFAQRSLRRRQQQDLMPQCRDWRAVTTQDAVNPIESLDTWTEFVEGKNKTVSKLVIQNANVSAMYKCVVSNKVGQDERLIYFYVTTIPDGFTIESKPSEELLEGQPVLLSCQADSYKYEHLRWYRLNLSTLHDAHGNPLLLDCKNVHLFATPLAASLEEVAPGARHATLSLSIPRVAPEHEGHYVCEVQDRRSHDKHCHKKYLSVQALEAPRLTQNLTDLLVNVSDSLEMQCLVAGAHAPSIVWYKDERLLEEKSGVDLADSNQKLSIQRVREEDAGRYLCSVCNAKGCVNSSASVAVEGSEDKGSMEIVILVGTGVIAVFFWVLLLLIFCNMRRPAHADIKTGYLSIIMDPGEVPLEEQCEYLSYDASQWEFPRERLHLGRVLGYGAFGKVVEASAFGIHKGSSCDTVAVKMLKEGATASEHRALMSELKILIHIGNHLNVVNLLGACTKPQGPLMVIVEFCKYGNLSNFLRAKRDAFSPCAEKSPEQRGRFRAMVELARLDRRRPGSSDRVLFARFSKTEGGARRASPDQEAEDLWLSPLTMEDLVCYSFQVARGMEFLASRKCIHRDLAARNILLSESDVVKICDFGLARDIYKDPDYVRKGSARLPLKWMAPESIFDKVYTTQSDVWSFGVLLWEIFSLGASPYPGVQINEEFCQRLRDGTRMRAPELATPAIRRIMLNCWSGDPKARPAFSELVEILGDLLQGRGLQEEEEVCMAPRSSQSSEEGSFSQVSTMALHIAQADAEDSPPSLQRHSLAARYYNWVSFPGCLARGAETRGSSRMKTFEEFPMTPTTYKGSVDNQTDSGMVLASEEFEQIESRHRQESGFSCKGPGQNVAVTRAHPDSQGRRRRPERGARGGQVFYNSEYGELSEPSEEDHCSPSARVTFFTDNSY", "assay": "Kinase inhibition assay (Eurofins KinaseProfiler)", "format": "biochemical", "conditions": "ATP at Km", "protocol": "as §3, §5, §4"}, "FGFR1(h)": {"target": "T6, FGFR1(h) (Homo sapiens, UniProt P11362)", "T6 construct": "purchased Eurofins (KinaseProfiler service)", "T6 sequence (P11362 22-822)": "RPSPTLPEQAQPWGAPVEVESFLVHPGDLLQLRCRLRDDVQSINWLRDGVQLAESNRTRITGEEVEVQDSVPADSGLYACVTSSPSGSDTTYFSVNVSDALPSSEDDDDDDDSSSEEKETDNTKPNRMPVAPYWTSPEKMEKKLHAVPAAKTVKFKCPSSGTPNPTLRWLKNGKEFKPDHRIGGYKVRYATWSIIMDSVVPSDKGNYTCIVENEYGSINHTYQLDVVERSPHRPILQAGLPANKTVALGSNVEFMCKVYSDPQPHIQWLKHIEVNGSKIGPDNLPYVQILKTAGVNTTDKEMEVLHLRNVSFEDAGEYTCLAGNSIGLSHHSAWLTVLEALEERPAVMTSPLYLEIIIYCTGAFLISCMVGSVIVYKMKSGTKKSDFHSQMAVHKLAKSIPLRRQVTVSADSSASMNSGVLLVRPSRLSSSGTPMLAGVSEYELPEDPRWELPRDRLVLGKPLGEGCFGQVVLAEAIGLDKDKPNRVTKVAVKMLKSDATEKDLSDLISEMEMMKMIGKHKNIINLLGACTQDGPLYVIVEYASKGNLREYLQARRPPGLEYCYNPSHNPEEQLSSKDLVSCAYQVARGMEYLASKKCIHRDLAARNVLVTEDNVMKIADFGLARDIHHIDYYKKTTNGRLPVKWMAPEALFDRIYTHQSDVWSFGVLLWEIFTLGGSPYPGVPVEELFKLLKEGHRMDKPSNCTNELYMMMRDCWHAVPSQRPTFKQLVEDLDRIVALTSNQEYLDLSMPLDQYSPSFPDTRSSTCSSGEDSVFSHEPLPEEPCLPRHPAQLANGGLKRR", "assay": "Kinase inhibition assay (Eurofins KinaseProfiler)", "format": "biochemical", "conditions": "ATP at Km", "protocol": "as §3\nFGFR1 (h) was incubated with 8 mM MOPS pH 7.0, 0.2 mM EDTA, 250 uM KKKSPGEYVNIEFG, 10 mM MgAcetate and [gamma-33P]-ATP.\nas §4"}, "Src(1-530)(h)": {"target": "T7, Src(1-530)(h) (Homo sapiens, UniProt P12931)", "T7 construct": "Src (1-530) (h) was incubated with; purchased Eurofins (KinaseProfiler service)", "T7 sequence (P12931 1-530)": "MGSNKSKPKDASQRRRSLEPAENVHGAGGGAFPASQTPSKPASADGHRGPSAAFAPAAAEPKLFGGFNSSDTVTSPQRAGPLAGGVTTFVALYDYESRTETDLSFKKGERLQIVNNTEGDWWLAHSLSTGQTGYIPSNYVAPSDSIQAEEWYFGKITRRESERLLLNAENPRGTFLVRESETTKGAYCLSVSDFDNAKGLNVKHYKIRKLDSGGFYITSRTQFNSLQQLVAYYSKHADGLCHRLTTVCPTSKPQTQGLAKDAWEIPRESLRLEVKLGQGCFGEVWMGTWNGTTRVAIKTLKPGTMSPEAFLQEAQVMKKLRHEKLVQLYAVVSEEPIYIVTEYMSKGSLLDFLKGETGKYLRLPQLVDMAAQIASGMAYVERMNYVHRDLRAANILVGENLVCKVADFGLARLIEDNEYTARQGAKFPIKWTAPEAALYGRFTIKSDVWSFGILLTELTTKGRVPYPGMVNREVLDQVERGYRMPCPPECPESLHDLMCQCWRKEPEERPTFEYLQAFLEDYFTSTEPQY", "assay": "Kinase inhibition assay (Eurofins KinaseProfiler)", "format": "biochemical", "conditions": "ATP at Km", "protocol": "as §3\nSrc (1-530) (h) was incubated with 8 mM MOPS pH 7.0, 0.2 mM EDTA, 500 uM GGEEEEYFELVKKKK, 10 mM MgAcetate and [gamma-33P]-ATP.\nas §4"}, "SKOV3 cells": {"test_system": "SKOV3 cells", "assay": "Colony formation assay, SKOV3", "format": "cell-based, human", "description": "Colony formation assay assesses the effect of a therapy on clonogenic survival which is one of the most important parameters of therapy efficacy in oncology. […] We also performed colony formation assay in SKOV3 cells at concentrations according to IC50 values to confirm the result (Figure S3).\nCells treated with indicated compounds or vehicle were washed with PBS, trypsinized, and reseeded into 6-well plates at 500–1000 cells per well. The colonies were allowed to form for 10–15 days. At the end of the culture, cells were washed with PBS, fixed with methanol for 30 min, then stained with 0.5% crystal violet overnight. After careful washing, the images were taken."}}}
{"molecule": "CC(C)n1nnc2ccc(-c3nc(Nc4ccc(CNC(=O)C5(C(=O)Nc6ccccc6)CC5)cc4)ncc3F)cc21", "note": "[12O]", "values": [{"measurement": "IC50", "setting": "SKOV3", "value": 29, "unit": "nM"}, {"measurement": "IC50", "setting": "HeLa", "value": 24, "unit": "nM"}, {"measurement": "IC50", "setting": "OVCAR-5", "value": 52, "unit": "nM"}, {"measurement": "inhibition at 1 µM", "setting": "CDK7/cyclinH/MAT1(h)", "value": 53, "unit": "%"}, {"measurement": "inhibition at 1 µM", "setting": "Abl(h)", "value": 31, "unit": "%"}, {"measurement": "inhibition at 1 µM", "setting": "FLT1 (VEGFR1)", "value": 50, "unit": "%"}, {"measurement": "inhibition at 1 µM", "setting": "FLT3(h); 1 µM", "value": 98, "unit": "%"}, {"measurement": "IC50", "setting": "FLT3(h)", "value": 24, "unit": "nM"}, {"measurement": "inhibition at 1 µM", "setting": "FLT4 (VEGFR3); 1 µM", "value": 95, "unit": "%"}, {"measurement": "IC50", "setting": "FLT4 (VEGFR3)", "value": 68, "unit": "nM"}, {"measurement": "inhibition at 1 µM", "setting": "FGFR1(h)", "value": -23, "unit": "%"}, {"measurement": "inhibition at 1 µM", "setting": "Src(1-530)(h)", "value": 46, "unit": "%"}, {"measurement": "proliferation by colony formation assay", "setting": "SKOV3 cells", "value": "effectively inhibited"}]}
